Experimental data as given in publication PMC6941952, “A homogeneous bioluminescent immunoassay to probe cellular signaling pathway regulation” (Communications Biology, 2020).

Test system: phospho-IκBα (Ser32)
Assay: NanoBiT cell-based immunoassay, phosphorylated IκBα in MCF-7 cells
Set-up: species or system human
Settings: for Raw data / Subtract reagent background: TNF
Method: Prior to NanoBiT Cell-Based Immunoassay, 50,000 cells were seeded in 160 µl of complete growth media per well of a 96-well plate and incubated overnight. The cells were checked under microscope and it was determined that 50,000 cells per well in 96-well plate is under 90% confluency for all cells tested. If necessary, the cell culture media were replaced with serum-free media after the cells were stably adherent on the plate and incubated overnight. To treat cells with activators or inhibitors, medium was changed to 30 µl of medium containing inhibitors. If activation of a specific pathway is needed, the cells were stimulated with 10 µl of medium containing activators. To lyse the cells, 10 µl of lysis buffer containing 0.1% digitonin diluted in 1X immunoassay buffer with protease and phosphatase inhibitors was added and the plates were mixed vigorously for 20 min. Then, 50 µl of an antibody mix containing two primary antibodies against the target protein and NanoBiT detecting antibodies (0.3 µl each per well), diluted in 1X immunoassay buffer was added to the lysates. The plates were incubated at 23 °C for 90 min, followed by the addition of 25 µl of Nano-Glo® reagent consisting of Nano-Glo® Luciferase Assay Substrate mixed with 1X immunoassay buffer. Luminescence was measured using a plate-reading luminometer.
In all, 50,000 MCF-7 cells were seeded in 160 µl complete growth medium per well of a 96-well plate and incubated overnight. Half of the cells were treated with 50 ng per ml TNFα and half with vehicle. Cells were lysed as described above and a mixture of NanoBiT secondary antibodies with primary antibodies at the matrix concentrations described in Fig. 2a were added. After 90 min incubation, the Nano-Glo® reagent was added to the reactions as described above and luminescence was measured using a plate-reading luminometer.
Single dose or dose response inhibitor treatments were performed prior to activation of the pathways as follows. For IκBα, the cells were treated in 30 µl medium with IKK16 or MG132 for 60 min before the addition of 10 µl of DMEM containing appropriate concentration of TNFα. To measure phosphorylation of AKT or STAT3, the corresponding NanoBiT immunoassays were developed with MCF-7 or A431 cells, respectively, according the same scheme used to develop the IκBα assay using the primary antibodies for AKT and STAT3 described in the reagents section. For the AKT assay, MCF-7 cells were incubated overnight in phenol-red free DMEM medium (Gibco #21063-029) without serum. Treatment with LY294002 was performed in 30 µl medium and cells were incubated for 60 min before the addition of 1 µM Insulin. To measure STAT3 phosphorylation, A431 cells were incubated overnight in DMEM medium without serum. […] After addition of the stimulators, the cells were incubated for additional times as follows. IκBα phosphorylation and degradation analyses required both time courses and single time points as described in figures. […] The NanoBiT immunoassay protocol was followed as described above.
All 96-well assay plates were read using a GloMax® 96 Microplate Luminometer from Promega. The instrument was set to 0.5 s integration time. In order to obtain net change of signal, the reagent background values (signal from the well containing all reagent except primary antibodies) were subtracted from the sample values. To plot and analyze the data, Microsoft Excel and GraphPad Prism® Software were used. IC50 values were determined by using a nonlinear regression fit to a sigmoidal dose response (variable slope).

[1] = plate #1, IkB Ab #1 75 ng/ml, P-IkB Ab #1 150 ng/ml
[2] = plate #1, IkB Ab #1 75 ng/ml, P-IkB Ab #1 300 ng/ml
[3] = plate #1, IkB Ab #1 75 ng/ml, P-IkB Ab #1 600 ng/ml
[4] = plate #1, IkB Ab #1 75 ng/ml, P-IkB Ab #1 1200 ng/ml
[5] = plate #1, IkB Ab #1 150 ng/ml, P-IkB Ab #1 75 ng/ml
[6] = plate #1, IkB Ab #1 150 ng/ml, P-IkB Ab #1 150 ng/ml
[7] = plate #1, IkB Ab #1 150 ng/ml, P-IkB Ab #1 300 ng/ml
[8] = plate #1, IkB Ab #1 150 ng/ml, P-IkB Ab #1 600 ng/ml
[9] = plate #1, IkB Ab #1 150 ng/ml, P-IkB Ab #1 1200 ng/ml
[10] = plate #1, IkB Ab #1 300 ng/ml, P-IkB Ab #1 75 ng/ml
[11] = plate #1, IkB Ab #1 300 ng/ml, P-IkB Ab #1 150 ng/ml
[12] = plate #1, IkB Ab #1 300 ng/ml, P-IkB Ab #1 300 ng/ml
[13] = plate #1, IkB Ab #1 300 ng/ml, P-IkB Ab #1 600 ng/ml
[14] = plate #1, IkB Ab #1 300 ng/ml, P-IkB Ab #1 1200 ng/ml
[15] = plate #1, IkB Ab #1 600 ng/ml, P-IkB Ab #1 75 ng/ml
[16] = plate #1, IkB Ab #1 600 ng/ml, P-IkB Ab #1 150 ng/ml
[17] = plate #1, IkB Ab #1 600 ng/ml, P-IkB Ab #1 300 ng/ml
[18] = plate #1, IkB Ab #1 600 ng/ml, P-IkB Ab #1 600 ng/ml
[19] = plate #1, IkB Ab #1 600 ng/ml, P-IkB Ab #1 1200 ng/ml
[20] = plate #1, IkB Ab #1 1200 ng/ml, P-IkB Ab #1 75 ng/ml
[21] = plate #1, IkB Ab #1 1200 ng/ml, P-IkB Ab #1 150 ng/ml
[22] = plate #1, IkB Ab #1 1200 ng/ml, P-IkB Ab #1 300 ng/ml
[23] = plate #1, IkB Ab #1 1200 ng/ml, P-IkB Ab #1 600 ng/ml
[24] = plate #1, IkB Ab #1 1200 ng/ml, P-IkB Ab #1 1200 ng/ml
[25] = plate #2, IkB Ab #2 75 ng/ml, P-IkB Ab #1 75 ng/ml

Substance: TNFα
- Raw data [1]: 38800
- Subtract reagent background [1]: 19890
- Raw data [2]: 36190
- Subtract reagent background [2]: 17280
- Raw data [3]: 29500
- Subtract reagent background [3]: 10590
- Raw data [4]: 23430
- Subtract reagent background [4]: 4520
- Raw data [5]: 31770
- Subtract reagent background [5]: 12860
- Raw data [6]: 37260
- Subtract reagent background [6]: 18350
- Raw data [7]: 34880
- Subtract reagent background [7]: 15970
- Raw data [8]: 27610
- Subtract reagent background [8]: 8700
- Raw data [9]: 22810
- Subtract reagent background [9]: 3900
- Raw data [10]: 28900
- Subtract reagent background [10]: 9990
- Raw data [11]: 32520
- Subtract reagent background [11]: 13610
- Raw data [12]: 32030
- Subtract reagent background [12]: 13120
- Raw data [13]: 24980
- Subtract reagent background [13]: 6070
- Raw data [14]: 21690
- Subtract reagent background [14]: 2780
- Raw data [15]: 24730
- Subtract reagent background [15]: 5820
- Raw data [16]: 27710
- Subtract reagent background [16]: 8800
- Raw data [17]: 26820
- Subtract reagent background [17]: 7910
- Raw data [18]: 24690
- Subtract reagent background [18]: 5780
- Raw data [19]: 22170
- Subtract reagent background [19]: 3260
- Raw data [20]: 22890
- Subtract reagent background [20]: 3980
- Raw data [21]: 24970
- Subtract reagent background [21]: 6060
- Raw data [22]: 24110
- Subtract reagent background [22]: 5200
- Raw data [23]: 24380
- Subtract reagent background [23]: 5470
- Raw data [24]: 22870
- Subtract reagent background [24]: 3960
- Fold change (TNF-treated /Non-treated) (plate #1, IkB Ab #1 (Mouse) 75 ng/ml, P-IkB Ab #1 (Rabbit) 150 ng/ml): 8.219
- Fold change (TNF-treated /Non-treated) (plate #1, IkB Ab #1 (Mouse) 75 ng/ml, P-IkB Ab #1 (Rabbit) 150 ng/ml, listed as TNF): 8.2
- Fold change (TNF-treated /Non-treated) (plate #1, IkB Ab #1 (Mouse) 75 ng/ml, P-IkB Ab #1 (Rabbit) 300 ng/ml): 4.364
- Fold change (TNF-treated /Non-treated) (plate #1, IkB Ab #1 (Mouse) 75 ng/ml, P-IkB Ab #1 (Rabbit) 300 ng/ml, listed as TNF): 4.4
- Fold change (TNF-treated /Non-treated) (plate #1, IkB Ab #1 (Mouse) 75 ng/ml, P-IkB Ab #1 (Rabbit) 600 ng/ml): 2.688
- Fold change (TNF-treated /Non-treated) (plate #1, IkB Ab #1 (Mouse) 75 ng/ml, P-IkB Ab #1 (Rabbit) 600 ng/ml, listed as TNF): 2.7
- Fold change (TNF-treated /Non-treated) (plate #1, IkB Ab #1 (Mouse) 75 ng/ml, P-IkB Ab #1 (Rabbit) 1200 ng/ml): 1.8374
- Fold change (TNF-treated /Non-treated) (plate #1, IkB Ab #1 (Mouse) 75 ng/ml, P-IkB Ab #1 (Rabbit) 1200 ng/ml, listed as TNF): 1.8
- Fold change (TNF-treated /Non-treated) (plate #1, IkB Ab #1 (Mouse) 150 ng/ml, P-IkB Ab #1 (Rabbit) 150 ng/ml): 9.557
- Fold change (TNF-treated /Non-treated) (plate #1, IkB Ab #1 (Mouse) 150 ng/ml, P-IkB Ab #1 (Rabbit) 150 ng/ml, listed as TNF): 9.6
- Fold change (TNF-treated /Non-treated) (plate #1, IkB Ab #1 (Mouse) 150 ng/ml, P-IkB Ab #1 (Rabbit) 300 ng/ml): 4.656
- Fold change (TNF-treated /Non-treated) (plate #1, IkB Ab #1 (Mouse) 150 ng/ml, P-IkB Ab #1 (Rabbit) 300 ng/ml, listed as TNF): 4.7
- Fold change (TNF-treated /Non-treated) (plate #1, IkB Ab #1 (Mouse) 150 ng/ml, P-IkB Ab #1 (Rabbit) 600 ng/ml): 2.797
- Fold change (TNF-treated /Non-treated) (plate #1, IkB Ab #1 (Mouse) 150 ng/ml, P-IkB Ab #1 (Rabbit) 600 ng/ml, listed as TNF): 2.8
- Fold change (TNF-treated /Non-treated) (plate #1, IkB Ab #1 (Mouse) 150 ng/ml, P-IkB Ab #1 (Rabbit) 1200 ng/ml): 0.8904
- Fold change (TNF-treated /Non-treated) (plate #1, IkB Ab #1 (Mouse) 150 ng/ml, P-IkB Ab #1 (Rabbit) 1200 ng/ml, listed as TNF): 0.9
- Fold change (TNF-treated /Non-treated) (plate #1, IkB Ab #1 (Mouse) 300 ng/ml, P-IkB Ab #1 (Rabbit) 150 ng/ml, listed as TNF): 4.1
- Fold change (TNF-treated /Non-treated) (plate #1, IkB Ab #1 (Mouse) 300 ng/ml, P-IkB Ab #1 (Rabbit) 300 ng/ml, listed as TNF): 3.3
- Fold change (TNF-treated /Non-treated) (plate #1, IkB Ab #1 (Mouse) 300 ng/ml, P-IkB Ab #1 (Rabbit) 600 ng/ml, listed as TNF): 1.6
- Fold change (TNF-treated /Non-treated) (plate #1, IkB Ab #1 (Mouse) 300 ng/ml, P-IkB Ab #1 (Rabbit) 1200 ng/ml, listed as TNF): 1.0
- Fold change (TNF-treated /Non-treated) (plate #1, IkB Ab #1 (Mouse) 600 ng/ml, P-IkB Ab #1 (Rabbit) 75 ng/ml, listed as TNF): 4.9
- Fold change (TNF-treated /Non-treated) (plate #1, IkB Ab #1 (Mouse) 600 ng/ml, P-IkB Ab #1 (Rabbit) 150 ng/ml, listed as TNF): 5.1
- Fold change (TNF-treated /Non-treated) (plate #1, IkB Ab #1 (Mouse) 600 ng/ml, P-IkB Ab #1 (Rabbit) 300 ng/ml, listed as TNF): 3.0
- Fold change (TNF-treated /Non-treated) (plate #1, IkB Ab #1 (Mouse) 600 ng/ml, P-IkB Ab #1 (Rabbit) 600 ng/ml, listed as TNF): 2.3
- Fold change (TNF-treated /Non-treated) (plate #1, IkB Ab #1 (Mouse) 600 ng/ml, P-IkB Ab #1 (Rabbit) 1200 ng/ml, listed as TNF): 1.1
- Fold change (TNF-treated /Non-treated) (plate #1, IkB Ab #1 (Mouse) 1200 ng/ml, P-IkB Ab #1 (Rabbit) 75 ng/ml, listed as TNF): 2.5
- Fold change (TNF-treated /Non-treated) (plate #1, IkB Ab #1 (Mouse) 1200 ng/ml, P-IkB Ab #1 (Rabbit) 150 ng/ml, listed as TNF): 3.0
- Fold change (TNF-treated /Non-treated) (plate #1, IkB Ab #1 (Mouse) 1200 ng/ml, P-IkB Ab #1 (Rabbit) 300 ng/ml, listed as TNF): 1.9
- Fold change (TNF-treated /Non-treated) (plate #1, IkB Ab #1 (Mouse) 1200 ng/ml, P-IkB Ab #1 (Rabbit) 600 ng/ml, listed as TNF): 2.0
- Fold change (TNF-treated /Non-treated) (plate #1, IkB Ab #1 (Mouse) 1200 ng/ml, P-IkB Ab #1 (Rabbit) 1200 ng/ml, listed as TNF): 1.8
- Raw data [25]: 20520
- Subtract reagent background [25]: 2000
- Raw data (plate #2, IkB Ab #2 75 ng/ml, P-IkB Ab #1 150 ng/ml): 20690
